± gives the standard deviation of the averaged measurements.
What was measured:
Conditions in all cases: 72 h
[1] = system: LAMA-84; experiment: cell viability (% survival relative to DMSO control, bortezomib = 0%); higher = less cytotoxic
Method in brief: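 Percent survival figures are means of duplicate wells. They were obtained by CellTiter-Glo luminescence after 10 AML and 5 CML cell lines spent 72 h at 37 °C with 5% CO2 in 384-well plates with compounds at 1, 10, 100, 1000 or 10000 nM. Vehicle was set to 100% and a 10 µM positive control to 0%.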

[2] = system: myeloid leukemia patient primary cells Pat.12; experiment: cell viability (% survival relative to DMSO control); higher = less cytotoxic
Method in brief: (§1)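 Where an area under the curve appears, it was computed with the drc and PharmacoGx R packages from log-logistic fits. Those fits used four parameters. The underlying viability data came from CellTiter-Glo after 72 h, normalised to DMSO and 10 μM proteasome-inhibitor wells, with thawed, Ficoll-purified AML or CML patient mononuclear cells at 10,000 cells/well in RPMI 1640 with 10% FBS on 384-well plates pre-printed with 70 compounds at five tenfold concentrations (1–10,000 nM) in duplicate.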

[3] = system: myeloid leukemia patient primary cells Pat.11; experiment: as above
Method in brief: as §1

[4] = system: myeloid leukemia patient primary cells Pat.15; experiment: as above
Method in brief: as §1

[5] = system: myeloid leukemia patient primary cells Pat.10; experiment: as above
Method in brief: as §1

[6] = system: myeloid leukemia patient primary cells Pat.6; experiment: as above
Method in brief: as §1

[7] = system: HL-60; experiment: cell viability (% survival relative to DMSO control); higher = less cytotoxic
Method in brief: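 HL-60 cells grown in RPMI 1640 with 10% FBS were rescreened against the full library in 384-well plates, in duplicate, at five tenfold concentrations from 1 to 10,000 nM, alongside DMSO or 100 nM of one of three metabolic inhibitors for 72 h at 37 °C, 5% CO2. Reference wells contained DMSO or 10 μM proteasome inhibitor. Viability was read with CellTiter-Glo and normalised to these reference wells, and where reported, area under the curve was taken from four-parameter log-logistic fits in drc and PharmacoGx.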

[8] = system: myeloid leukemia patient primary cells Pat.13; experiment: area under dose-response curve (viability, 1 nM-10 uM) (fraction (0-1)); higher = more sensitive
Method: (§2)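 AUC (0–1, higher = more sensitive) of the 5-point dose–response (1 nM–10 µM, 72 h, CellTiter-Glo) in primary AML/CML patient mononuclear cells. 0.030103 is the floor for inactive compounds.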

[9] = system: myeloid leukemia patient primary cells Pat.4; experiment: as above
Method: as §2

[10] = system: myeloid leukemia patient primary cells Pat.5; experiment: as above
Method: as §2

[11] = system: myeloid leukemia patient primary cells Pat.12; experiment: as above
Method: as §2

[12] = system: myeloid leukemia patient primary cells Pat.9; experiment: as above
Method: as §2

[13] = system: myeloid leukemia patient primary cells Pat.11; experiment: as above
Method: as §2

[14] = system: myeloid leukemia patient primary cells Pat.15; experiment: as above
Method: as §2

[15] = system: myeloid leukemia patient primary cells Pat.3; experiment: as above
Method: as §2

[16] = system: myeloid leukemia patient primary cells Pat.2; experiment: as above
Method: as §2

[17] = system: myeloid leukemia patient primary cells Pat.1; experiment: as above
Method: as §2

[18] = system: myeloid leukemia patient primary cells Pat.6; experiment: as above
Method: as §2

[19] = system: myeloid leukemia patient primary cells Pat.14; experiment: as above
Method: as §2

[20] = system: myeloid leukemia patient primary cells Pat.8; experiment: as above
Method: as §2

[21] = system: myeloid leukemia patient primary cells Pat.10; experiment: as above
Method: as §2

[22] = system: myeloid leukemia patient primary cells Pat.7; experiment: as above
Method: as §2

Cc1c(-c2ccc(-c3ccccc3F)cc2)nc2ccc(F)cc2c1C(=O)O [Brequinar]
cell viability [%]
Conditions | [1] | [2] | [3] | [4] | [5] | [6]
1 nM | 97.3 | 22 | 97.9 | 91.1 | 58.9 | > 100
10 nM | 98.2 | 99 | > 100 | 85.4 | 81.4 | > 100
100 nM | 94.2 | 93.2 | > 100 | 87.7 | 56.6 | 93.9
1000 nM | 102 | 98.4 | > 100 | 98.9 | 77.9 | 97.8
10000 nM | 47.4 | 95 | 97.7 | 87.7 | 57.7 | 96.8

cell viability [%], [7]
Conditions | 0.001 µM | 0.01 µM | 0.1 µM | 1 µM | 10 µM
co-treatment: AZD3965 100 nM | 98.8 ± 10 | 99.3 ± 11 | 78.9 ± 5.1 | 84.4 ± 8.2 | 68.2 ± 15
co-treatment: DMSO vehicle | 99.9 ± 7.8 | 98.8 ± 3.9 | 81.4 ± 4.1 | 87.8 ± 4.5 | 81.3 ± 6.8
co-treatment: GSK2194069 100 nM | 96.8 ± 13 | 103 ± 12 | 84.9 ± 3.2 | 86.9 ± 3.8 | 76.8 ± 7.7
co-treatment: pictilisib 100 nM | 91.4 ± 20 | 101 ± 4 | 86.8 ± 3.4 | 87.3 ± 11 | 93 ± 18

Conditions | area under dose-response curve
[8] | < 0.0301
[9] | < 0.0301
[10] | 0.433
[11] | < 0.0301
[12] | 0.532
[13] | < 0.0301
[14] | < 0.0301
[15] | 0.588
[16] | < 0.0301
[17] | < 0.0301
[18] | < 0.0301
[19] | 0.142
[20] | < 0.0301

CCC(=O)N1CCN(c2ccc(-n3c(=O)ccc4cnc5ccc(-c6cnc7ccccc7c6)cc5c43)cc2C(F)(F)F)CC1 [Torin1]
cell viability [%]
Conditions | [1] | [2] | [3] | [4] | [5] | [6]
1 nM | 105 | 90.6 | 92.9 | 80.6 | 63.9 | 97.8
10 nM | 93.1 | 91.5 | 90.9 | 55.9 | 96.5 | 89.3
100 nM | 80.2 | 92.3 | 85.8 | 20.2 | 30 | 94.1
1000 nM | 28.8 | 91.5 | 56.7 | 14.2 | 18.6 | 62.6
10000 nM | 21.8 | 89.5 | 39.4 | 12.1 | 9.9 | 62.9

cell viability [%], [7]
Conditions | 0.001 µM | 0.01 µM | 0.1 µM | 1 µM | 10 µM
co-treatment: AZD3965 100 nM | 105 ± 6.4 | 100 ± 18 | 91.3 ± 18 | 99 ± 2.9 | 51.4 ± 2.1
co-treatment: DMSO vehicle | 97.9 ± 4.5 | 102.1 ± 0.92 | 93.4 ± 14 | 101 ± 3.5 | 65.4 ± 8.4
co-treatment: GSK2194069 100 nM | 106 ± 8 | 106 ± 1.1 | 92.1 ± 16 | 104.4 ± 0.71 | 72.7 ± 3.2
co-treatment: pictilisib 100 nM | 100 ± 6.4 | 104 ± 1.5 | 80 ± 22 | 85.8 ± 5.2 | 65.5 ± 3.1

Conditions | area under dose-response curve
[8] | 0.218
[9] | 0.322
[10] | 0.802
[11] | < 0.0301
[12] | 0.36
[13] | 0.183
[14] | 0.614
[17] | 0.457
[19] | 0.225
[20] | 0.0632
[21] | 0.477
[22] | 0.195

CC(C)c1onc(-c2c(Cl)cccc2Cl)c1COc1ccc(/C=C/c2cccc(C(=O)O)c2)c(Cl)c1 [GW4064]
[1]
Conditions | cell viability [%]
1 nM | 105
10 nM | 103
100 nM | 94.2
1000 nM | 85.3
10000 nM | 43.4

cell viability [%], [7]
Conditions | 0.001 µM | 0.01 µM | 0.1 µM | 1 µM | 10 µM
co-treatment: AZD3965 100 nM | 102 ± 3.9 | 98.93 ± 0.69 | 91 ± 13 | 109 ± 3.3 | 93.1 ± 5.6
co-treatment: DMSO vehicle | 99.99 ± 0.47 | 99.3 ± 1.1 | 101 ± 1.8 | 99.9 ± 2.6 | 99.6 ± 2
co-treatment: GSK2194069 100 nM | 99.3 ± 7.7 | 98.9 ± 1.6 | 97.7 ± 1.6 | 90.85 ± 0.69 | 75.5 ± 2.3
co-treatment: pictilisib 100 nM | 86.7 ± 13 | 96.6 ± 2 | 90.9 ± 10 | 105 ± 1.7 | 97.1 ± 1

O=C1O[C@H]([C@@H](O)CO)C(O)=C1O [Vitamin C (ascorbate)]
[1]
Conditions | cell viability [%]
1 nM | 106
10 nM | 106
100 nM | 113
1000 nM | 101
10000 nM | 102

cell viability [%], [7]
Conditions | 0.001 µM | 0.01 µM | 0.1 µM | 1 µM | 10 µM
co-treatment: AZD3965 100 nM | 89.82 ± 0.29 | 94.8 ± 6.4 | 101 ± 2 | 103 ± 4.3 | 67.9 ± 35
co-treatment: DMSO vehicle | 102 ± 1.1 | 95.8 ± 7.2 | 98.77 ± 0.68 | 103 ± 2.7 | 88.3 ± 13
co-treatment: GSK2194069 100 nM | 88.6 ± 17 | 100 ± 1.1 | 96.8 ± 6.4 | 101 ± 4.3 | 95.5 ± 1.6
co-treatment: pictilisib 100 nM | 80.3 ± 1.6 | 81.6 ± 28 | 96.3 ± 3.5 | 95.46 ± 0.63 | 75.2 ± 19

NCCCC(N)(C(=O)O)C(F)F (stereo not given) [Difluoromethylornithine]
[1]
Conditions | cell viability [%]
1 nM | 107
10 nM | 99.2
100 nM | 91.8
1000 nM | 102
10000 nM | 110

cell viability [%], [7]
Conditions | 0.001 µM | 0.01 µM | 0.1 µM | 1 µM | 10 µM
co-treatment: AZD3965 100 nM | 105 ± 3.3 | 100.5 ± 0.84 | 100 ± 0.81 | 93.5 ± 2.9 | 96.8 ± 4
co-treatment: DMSO vehicle | 103 ± 2.6 | 97.01 ± 0.84 | 104 ± 6 | 101 ± 1.8 | 103 ± 1.9
co-treatment: GSK2194069 100 nM | 101 ± 7.7 | 98.8 ± 4.4 | 104 ± 1.5 | 95.6 ± 6.4 | 101 ± 4.5
co-treatment: pictilisib 100 nM | 100 ± 9.8 | 92.3 ± 4 | 97.2 ± 1.6 | 92.6 ± 4.1 | 94.6 ± 2

CC(C)c1cc2c(c(O)c1O)[C@@]1(C(=O)O)CCCC(C)(C)[C@@H]1CC2 [Carnosic acid]
[1]
Conditions | cell viability [%]
1 nM | 97.7
10 nM | 98
100 nM | 102
1000 nM | 91.1
10000 nM | 96.6

cell viability [%], [7]
Conditions | 0.001 µM | 0.01 µM | 0.1 µM | 1 µM | 10 µM
co-treatment: AZD3965 100 nM | 98.3 ± 1.3 | 101 ± 5.2 | 117 ± 20 | 98.58 ± 0.66 | 100 ± 1.1
co-treatment: DMSO vehicle | 96.16 ± 0.17 | 100.2 ± 0.6 | 99.2 ± 2.8 | 97.53 ± 0.66 | 103 ± 2.5
co-treatment: GSK2194069 100 nM | 101 ± 5.3 | 89.4 ± 19 | 105 ± 5.3 | 99.3 ± 2.7 | 95.3 ± 2.3
co-treatment: pictilisib 100 nM | 93.2 ± 7.5 | 102 ± 2.3 | 97.6 ± 10 | 96.1 ± 1.2 | 116 ± 11

CCN(CC)CCCC(C)Nc1ccnc2cc(Cl)ccc12 (stereo not given) [Chloroquine]
[1]
Conditions | cell viability [%]
1 nM | 105
10 nM | 101
100 nM | 101
1000 nM | 101
10000 nM | 99.1

cell viability [%], [7]
Conditions | 0.001 µM | 0.01 µM | 0.1 µM | 1 µM | 10 µM
co-treatment: AZD3965 100 nM | 102 ± 1.2 | 87.5 ± 17 | 107.4 ± 0.11 | 104 ± 5.8 | 97.5 ± 7.8
co-treatment: DMSO vehicle | 104 ± 3.9 | 91.3 ± 17 | 102.4 ± 0.66 | 106 ± 4.4 | 99.7 ± 1.6
co-treatment: GSK2194069 100 nM | 102.2 ± 0.76 | 77.2 ± 30 | 98.3 ± 1.5 | 102 ± 5.2 | 89.7 ± 6.5
co-treatment: pictilisib 100 nM | 96.1 ± 2.8 | 67.7 ± 45 | 104 ± 2.7 | 103.8 ± 0.31 | 100 ± 22

Source: the supplement of paper PMC8671470
